# pIC50: −log10 of the molar value.
# Legend:
# [1] = test system: WI38 normal lung fibroblasts; experiment: CellTiter-Glo luminescent cell viability assay; type: cell-based, human; conditions: 72 hours
# Experimental: (§1) Cells were seeded in 96-well plates at a density of 5×10^3 cells per well. 20 μL of CellTiter-Glo® Reagent was added directly to the wells, following the manufacturer's protocol, and bioluminescence signal was determined using an IVIS imaging system.
# Cell lines at a concentration of 4×10^3 cells/well were seeded out on an opaque 96-well plate and treated with CB002 and Analog 11 in ranging doses starting from 200 μmol/L with DMSO controls. At 72 hours after treatment, cells were mixed with 30 μL Cell Titer-Glo reagent and after ten minutes of room temperature incubation were imaged using IVIS imaging system (Xenogen).
# (§2) To begin establishing the potential of CB002 as a candidate therapeutic agent, its therapeutic index was determined by treating cancer (DLD-1, SW480, and RXF393) and normal (WI38 and MRC5) cell lines with concentrations of CB002 ranging from 0-500 μM for a period of 72 hours and assessing cell viability by the CellTiter-Glo® luminescence assay (see, FIG. 2). CB002 has a significant therapeutic index among the cells tested.
# [2] = test system: normal (WI38 and MRC5) cell lines; experiment: CellTiter-Glo cell viability, normal cell lines (summary); type: cell-based; conditions: Homo sapiens; 72 hours
# Experimental: as §1, §2
# [3] = test system: cancer (DLD-1, SW480, and RXF393) cell lines; experiment: CellTiter-Glo cell viability, panel of cancer cell lines (summary); type: cell-based; conditions: Homo sapiens; 72 hours
# Experimental: as §1, §2
# [4] = test system: SW480 NOXA stable knockdown cells; experiment: apoptosis assay, sub-G1 analysis; type: cell-based, human; conditions: 96 μM, 48 hours, NOXA stably knocked down; DMSO 3.93%
# Experimental: A NOXA shRNA plasmid construct was amplified according to the manufacturer's recommendation (TRC Lentiviral Human PMAIP1 shRNA, Dharmacon). Plasmid DNA was isolated using the PureLink® HiPure Plasmid Filter Maxiprep Kit (Invitrogen) according to the manufacturer's instructions. Lentivirus production was performed by transfecting HEK293T cells at a density of 8×10^6 cells per 10 cm dish with 1.6 μg pMD2.G envelope plasmid, 3.2 μg psPAX2 packaging vector, 3.2 μg plasmid DNA, and 24 μL of Lipofectamine® Transfection reagent 2000 (Life Technologies) in a total volume of reaction of 1 mL of antibiotic free DMEM media for a period of 6-10 hours. Media was then replaced with antibiotic free DMEM. Lentiviral particles were collected between 48-72 hours. SW480 cells ([…] in a 12-well plate) were infected 1:1 (virus containing media: antibiotic free DMEM media, total volume 1 mL) for a period of 24 hours. Then, media was replaced with DMEM complete media for an additional 24 hours. At this point, cells were split and seeded (20% confluent) for selection in a 10 cm dish with puromycin (2.5 μg/mL)-containing complete DMEM media and cultured for 10 days. Puromycin containing complete media was replaced every 2-3 days. Puromycin-resistant clones were screened for knockdown of NOXA by Western blot analysis with NOXA antibody.
# Apoptotic cells were quantified by sub-G1 analysis. […]
# [5] = target: T1, R175H p53 mutant in HCT116 p53 R175H cells (Homo sapiens, UniProt P04637, R175H); experiment: Western blot of mutant p53; type: cell-based
# T1 construct: V5 (only from the vector name pLenti6/V5); host or cells: HCT116 p53-/- cells, lentivirus infection, blasticidin-selected pooled clones
# Experimental: HCT116 p53^−/− cells (previously obtained from the Vogelstein Laboratory, Johns Hopkins University) were infected with a lentivirus vector containing the p53 R175H mutant (pLenti6/V5-p53_R175H, Addgene). Cells were selected with blasticidin (8 μg/mL) containing media cultured for 10 days. Blasticidin-resistant clones (pooled clones) were screened for expression of the p53 R175H mutation by Western blot analysis with p53 DO-1 antibody.
# After treatment, cells were harvested by trypsinization, washed with PBS, and lysed with RIPA buffer (Sigma-Aldrich) for 30 minutes to 1 hour at 4° C. Protein lysates were spun down and supernatant was collected. Protein quantification was performed using a Pierce™ BCA Protein Assay Kit (Thermo Fisher Scientific). 1×NuPAGE® LDS sample buffer (Thermo Fisher Scientific) and 2-Mercaptoethanol as the reducing agent (Sigma-Aldrich) were added to protein lysates, followed by boiling for 15 minutes at 95° C. Equal total protein amounts samples were loaded into NuPAGE™ Novex™ 4-12% Bis-Tris Protein Gels (1.5 mm, Thermo Fisher Scientific) and gel eletrophoresis was performed with NuPAGE™ MES SDS Running Buffer. Proteins were transferred onto an Immobilon-P membrane (PVDF, EMD Millipore) using a Bio-Rad system with a 10% Tris-Glycine and 10% methanol transfer buffer diluted in distilled and deionized water. After transfer, membranes were blocked with 10% milk in TBST solution and then incubated overnight with primary antibody, washed with TBST and incubated with secondary antibody for 1 hour. Incubations were performed in 5% milk in TBST solution. Signal was detected by using a chemiluminescent detection kit, followed by autoradiography. The following antibodies were used: p53 (DO-1, 1:1000, Santa Cruz), p73 (1:1000, Bethyl Laboratories), p21 and NOXA (1:250, EMD Millipore), DR5, FADD, cleaved caspase 3, cleaved caspase 8, cleaved PARP, and LC3B (1:1000, Cell Signaling), and β-actin (1:10000, Sigma).
structure (smiles),measurement,setting,value
"Cn1c(=O)c2[nH]c(Nc3ccccc3)nc2n(C)c1=O [CB002, 8-anilino-1,3-dimethyl-3,7-dihydro-1H-purine-2,6-dione]",IC50 in Wi38 cells compared with colorectal cancer cells,"[1]; versus SW480, DLD-1, HCT116 and HCT116 p53-null",much higher
same,pIC50,"[1]; Homo sapiens, WI-38, WI38 (normal), GraphPad",3.19
same,pIC50,[2],~3.19
same,pIC50,[3],3.40 to 4.02
same,sub-G1 content,[4],3.7%
same,R175H mutant p53 protein expression,"[5]; 50 and 100 μM, 16 and 24 hours, versus DMSO",decrease in mutant p53 protein expression
same,R175H p53 mutant protein expression,"[5]; 50 or 100 μM with MDM2 inhibitor Nutlin-3A, 24 hours",still resulted in reduction of R175H p53 mutant protein expression
same,R175H mutant p53 protein expression,"[5]; co-treatment with chloroquine, 16 and 24 hours",did not rescue R175H mutant p53 protein expression
same,R175H mutant p53 protein expression,"[5]; with proteasome inhibitor MG132 (5 and 10 μM), 24 hours",appeared to rescue R175H mutant p53 protein expression

# From patent publication US11203598B2, “Compounds for repressing cancer cell growth” (Institute For Cancer Research, priority 2018, dated 2021)
